The results in this text go back to ChEMBL document CHEMBL3507680, “University of Dundee, Gates Library screen for HepG2 cell viability”.

The nature of the data set: Human HepG2 cell viability assay in 384 well format. Type of data set: toxicity, cell-based. Also noted: dose 125 nL, time 70.5 hour; cytotoxicity at 70.5 h: concentration not given beside the values. Conditions: HepG2 cells, read-out: Inhibition.

For `COc1ccc(Cl)cc1C(=O)NCc1cnn(C)c1C`, the cytotoxicity at 70.5 h was -0.564%.

For the compound `CCCS(=O)(=O)N1CCC2(CC1)CC(=O)N(CCCc1ccccc1)C2`, the cytotoxicity at 70.5 h worked out at 23.4%.

As to `CN1CCC(N(C)C[C@H]2CC[C@@H](Cc3cccc(CO)c3)O2)CC1`, the cytotoxicity at 70.5 h came out at 5.66%.

As to `CC(=O)N1CCc2c(nc(N(C)C)nc2N(C)CCC2CCCCO2)C1` (stereo not given), the cytotoxicity at 70.5 h was determined as 11.3%.

For the compound `CCc1cc(N(C)Cc2ccncn2)n2nc(C)c(C)c2n1`, the cytotoxicity at 70.5 h is -5.09%.

`Cc1nn(C)c(C)c1NC(=O)c1cccc(CN2C[C@H]3CC[C@@H](C2)N3)c1`: the cytotoxicity at 70.5 h is -13.8%.

Turning to `CCCc1nnc(NC2CCN(C3CCSCC3)CC2)o1`, the cytotoxicity at 70.5 h was -13.9%.

Consider `CS(=O)(=O)N1C[C@@H]2CC[C@H](C1)N(C/C=C/c1ccc(F)cc1)C2`, for which the cytotoxicity at 70.5 h is -4.45%.

Regarding `COC(=O)c1ccc(OC)c(OC23CCCN(CC2)C3)c1` (stereo not given), the cytotoxicity at 70.5 h was -8.44%.

In the case of `NC(=O)c1cncc(Oc2cccc(CN3CCCC3)c2Cl)n1`, the cytotoxicity at 70.5 h was -4.84%.

Take `CCN(Cc1cnn(C)c1)C[C@H]1CC[C@@H](Cc2cccc(CN)c2)O1`: the cytotoxicity at 70.5 h was 3.32%.

Consider `Fc1cccc(Cl)c1Cn1ncnc1CSCCN1CCCC1`, for which the cytotoxicity at 70.5 h is -6.36%.

In the case of `O=C(NC1CCC1)c1cccc(S(=O)(=O)NCc2nc(C3CC3)no2)c1`, the cytotoxicity at 70.5 h was 6.45%.

For the compound `COc1cc(C(=O)N2CC[C@@H](NC(=O)c3ccccn3)[C@H](O)C2)ccn1`, the cytotoxicity at 70.5 h was -9.28%.

Consider `CCN(CC)C1CCN(C(=O)c2cc(CC(C)C)nn2CC)C1` (stereo not given), for which the cytotoxicity at 70.5 h turned out to be 3.49%.

With `CCN1CC2(CCN(Cc3nc(CSC)no3)CC2)CC1=O`, the cytotoxicity at 70.5 h worked out at 23.5%.

Regarding `Cc1cc2cccc(C(=O)N3CC[C@@H](N)[C@H](O)C3)c2o1`, the cytotoxicity at 70.5 h was -9.95%.

Consider `Cc1cc(C(F)(F)F)nc(N2CCN(Cc3nccn3C)CC2)n1`, for which the cytotoxicity at 70.5 h is 4.75%.

`Cn1cc(CN2CCC(CCC(=O)NC3CC3)CC2)cn1`: the cytotoxicity at 70.5 h was found to be 0.934%.

For the compound `CCn1ccnc1CN(C)C1CCCN(Cc2ccccc2F)C1` (stereo not given), the cytotoxicity at 70.5 h was -1.31%.

As for `CC1CN(Cc2nc(Cc3ccccc3F)no2)CCN1C` (stereo not given), the cytotoxicity at 70.5 h was -2.74%.

With `C[C@@H]1CN(Cc2ccc(C(F)(F)F)cc2F)CC[C@]1(C)O`, the cytotoxicity at 70.5 h is 26.4%.

Turning to `Cc1sc2nc(CCN)nc(N(C)CCCC3CCCO3)c2c1C` (stereo not given), the cytotoxicity at 70.5 h amounted to 16.5%.

On to `CN(CC1(CO)CCC1)c1nc2c(c(=O)[nH]1)Cc1ccccc1OC2`, for which the cytotoxicity at 70.5 h was -10.8%.

Consider `CC(C)N(C(=O)c1ccccc1-c1nc2c([nH]1)CCNC2)C(C)C`, for which the cytotoxicity at 70.5 h turned out to be 5.55%.

Regarding `Cn1ncc(NC(=O)Cn2cc(-c3ccc(F)cn3)cn2)n1`, the cytotoxicity at 70.5 h is -10.2%.

On to `CNc1cc(C)nc(N2Cc3cnn(Cc4ccc(F)cc4)c3C2)n1`, for which the cytotoxicity at 70.5 h worked out at 11.4%.

For the compound `Cc1nnsc1CN(C)Cc1ccc(C(=O)Nc2sccc2C#N)cc1`, the cytotoxicity at 70.5 h was -3.25%.

`O=C(O)[C@]12CCCN(Cc3cccnc3)[C@@H]1CCN(c1cnccn1)C2`: the cytotoxicity at 70.5 h amounted to 2.83%.

`O=C1C[C@H]2CC[C@@H](CN1)N2C1CCSCC1`: the cytotoxicity at 70.5 h was 0.716%.

Take `CSc1cccc(CC(=O)N[C@@H]2CCNC[C@H]2O)c1`: the cytotoxicity at 70.5 h worked out at 10.3%.

Take `COCc1nnc(C(=O)N2CCC(N3CCCCC3)CC2)o1`: the cytotoxicity at 70.5 h came out at 16.4%.

Turning to `Cc1ccc(CN(CCN(C)C)C(=O)Nc2ccc(C)c(C#N)c2)s1`, the cytotoxicity at 70.5 h came to 1.83%.

`COc1cccnc1-c1ccc(F)c2c1OC(CN)C2` (stereo not given): the cytotoxicity at 70.5 h is 3.56%.

Turning to `Cc1ccc(CN2C[C@H]3CC[C@@H]2CN(Cc2[nH]cnc2C)C3)o1`, the cytotoxicity at 70.5 h is -0.228%.

As to `Cc1ccc(-c2nnc(CN3CCOCC(CO)C3)o2)n1C` (stereo not given), the cytotoxicity at 70.5 h is -3.57%.

With `CN(CCO)C[C@@H]1CN(Cc2ccccc2-c2ccccc2)C[C@@H]1CO`, the cytotoxicity at 70.5 h was -2.36%.

`C1CCC(c2nc3c(c(N4CC(N5CCOCC5)C4)n2)CCNCC3)C1`: the cytotoxicity at 70.5 h was -8.17%.

Take `CCOCCN1CCC=C(C2c3nc[nH]c3CCN2C(C)=O)C1` (stereo not given): the cytotoxicity at 70.5 h amounted to 0.27%.

Consider `Cc1ccc(C)c(OCCNC(=O)[C@@H]2CCCCN2)c1`, for which the cytotoxicity at 70.5 h was -5.85%.

With `O=C(CCc1cc2n(n1)CCCNC2)NCCS(=O)(=O)N1CCCC1`, the cytotoxicity at 70.5 h came to 21.6%.

With `Cc1cc2occ(CC(=O)N3CCC4(CCCN(C)C4=O)C3)c2cc1Cl` (stereo not given), the cytotoxicity at 70.5 h is -8.33%.

Take `CCC(=O)c1ccc(OCC(=O)NC(C)c2ncnn2CC)cc1` (stereo not given): the cytotoxicity at 70.5 h is -17.2%.

Consider `NC(=O)c1noc(Cn2ccc3ccccc3c2=O)n1`, for which the cytotoxicity at 70.5 h is -4.6%.

For the compound `NC(=O)NCCC(=O)N1CCC(c2cc(-c3ccccc3Cl)n[nH]2)CC1`, the cytotoxicity at 70.5 h was -1.52%.

For `CCSc1ncc(CN2C[C@H]3CC[C@@H]2CN(C2CCOCC2)C3)cn1`, the cytotoxicity at 70.5 h is -7.51%.

Consider `Cc1cc(C(=O)N2CCn3nc(C(=O)NC4CC4)cc3C2)nc(C)n1`, for which the cytotoxicity at 70.5 h was -2.56%.

As for `O=C(CCC1CCN(C2CCSCC2)CC1)NCC1CCCO1` (stereo not given), the cytotoxicity at 70.5 h was -12%.

On to `O=C(O)CSc1nnc(-c2ccn[nH]2)n1-c1cccc(C(F)(F)F)c1`, for which the cytotoxicity at 70.5 h is -4.2%.

With `CCNC(=O)[C@@H]1C[C@@H](N)CN1C(=O)CCc1ccc(C)c(C)c1`, the cytotoxicity at 70.5 h was -10.5%.

`Cc1ccc(-c2nc3c([nH]2)CCNC3C(=O)O)c2cccnc12` (stereo not given): the cytotoxicity at 70.5 h was -6.16%.

With `COc1ccc(C(=O)N2CCC(Oc3ccccc3C)(C(=O)O)CC2)o1`, the cytotoxicity at 70.5 h is -3.87%.

As for `Cc1nc(CN(Cc2cccnc2)Cc2ccsc2)c[nH]1`, the cytotoxicity at 70.5 h came to 0.327%.

In the case of `CC(C)N1CC(C(=O)N2CCC(Oc3ccccc3Cl)CC2)CC1=O` (stereo not given), the cytotoxicity at 70.5 h is -0.961%.

With `CCCc1nc(N[C@H]2COC[C@@H]2N2CCCCC2)c2cnn(C)c2n1`, the cytotoxicity at 70.5 h was -13.5%.

Take `C1CC(CN2C[C@H]3CC[C@@H]2CN(Cc2noc(C4CCCC4)n2)C3)C1`: the cytotoxicity at 70.5 h is 22.2%.

In the case of `CS(=O)(=O)N1CCC(c2nnc(CN3CCCC3)n2C2CC2)CC1`, the cytotoxicity at 70.5 h is 0.642%.

In the case of `COc1cc(C)cc(C(C(=O)O)N(C)Cc2ccncc2C)c1OC` (stereo not given), the cytotoxicity at 70.5 h was 4.18%.

`Cc1ccc(-c2cc(C(=O)N(C)Cc3noc4c3CCCC4)[nH]n2)o1`: the cytotoxicity at 70.5 h is 43.8%.

On to `N[C@@H]1c2ccccc2C2(CCN(C(=O)c3ccc(Cl)cn3)CC2)[C@H]1O`, for which the cytotoxicity at 70.5 h turned out to be 18.5%.

Regarding `COCCN(Cc1nccs1)C(=O)c1c(C)cc(C)[nH]c1=O`, the cytotoxicity at 70.5 h was 12.2%.

On to `Cc1nc(NCc2noc(C3CCCO3)n2)c2ccsc2n1` (stereo not given), for which the cytotoxicity at 70.5 h was 26.9%.

`O=C1CNCC(C(=O)N2CC(Oc3ccccc3Cl)C2)N1` (stereo not given): the cytotoxicity at 70.5 h is -7.25%.

`Cc1n[nH]c(C)c1CCC(=O)N1CCc2c(nc[nH]c2=O)C1`: the cytotoxicity at 70.5 h is -22.4%.

For the compound `CN1CCC(C)(CN(C)Cc2ccc(CCC(C)(C)O)cc2)C1` (stereo not given), the cytotoxicity at 70.5 h was -6.89%.

With `COCCCN1CC2(CCCN(c3ncc(Cl)cc3F)C2)CCC1=O` (stereo not given), the cytotoxicity at 70.5 h turned out to be 3.03%.

As to `O=C(CCCN1CCOCC1)N1CCCC(CO)(CC2CC2)C1` (stereo not given), the cytotoxicity at 70.5 h is -9.81%.

On to `O=C(c1cc2ccccc2s1)N1CCC(C(=O)O)(n2cccn2)CC1`, for which the cytotoxicity at 70.5 h was -4.38%.

For `CCOC(=O)C1(Cc2cccc(OC)c2)CCN(Cc2ncc[nH]2)CC1`, the cytotoxicity at 70.5 h was -8.46%.

`CCc1cc(NCCc2cnccn2)n2nc(C)c(C)c2n1`: the cytotoxicity at 70.5 h was -5.77%.

For the compound `Cc1nc(C)c(C(=O)N2CCc3[nH]nc(COc4ccccc4)c3C2)s1`, the cytotoxicity at 70.5 h was -1.76%.

As to `Cc1cc(CN2CCC(CNC(=O)c3cnc(C)nc3C)C2)[nH]n1` (stereo not given), the cytotoxicity at 70.5 h was determined as 7.59%.

Consider `CC(=O)c1cc(C(=O)N2CC[C@@H]3CC[C@H](C2)N3C)c(=O)[nH]c1C`, for which the cytotoxicity at 70.5 h was 22.4%.

For `CN1CCCN(C(=O)c2csc3nc(-c4ccc(Cl)cc4)cn23)CC1`, the cytotoxicity at 70.5 h was -23%.

Take `CCCc1nc(CNC(=O)Cc2csc(C)n2)cs1`: the cytotoxicity at 70.5 h worked out at 0.825%.

With `Cc1c(CN2CCC(C(=O)O)(n3ccnc3)CC2)oc2ccccc12`, the cytotoxicity at 70.5 h is -7.33%.

Regarding `CC(C)Oc1cccc(CN2CCC(C(C)N3CCOCC3)CC2)c1` (stereo not given), the cytotoxicity at 70.5 h was -8.8%.

On to `COc1ccc([C@@H]2CN(c3cnccn3)C[C@H]2N(C)C)cc1`, for which the cytotoxicity at 70.5 h stood at 22%.

Turning to `CCCn1ncc(CN(Cc2ccsc2)Cc2ccco2)c1C`, the cytotoxicity at 70.5 h is -6%.

Turning to `CN(CCSc1ccccc1)C(=O)C(c1cccnc1)N1CCOCC1` (stereo not given), the cytotoxicity at 70.5 h was 33.5%.

On to `CCNc1ncc(C(=O)N2CCC(c3ccccc3C(=O)O)C2)cn1` (stereo not given), for which the cytotoxicity at 70.5 h was 2.76%.

In the case of `CCc1cn[nH]c1C1CCCN(C(=O)c2noc(C)c2COC)C1` (stereo not given), the cytotoxicity at 70.5 h was -10.2%.

Consider `CN(C)C(=O)c1ccc(C2CCCN2C(=O)c2cccc3c2OCC3)s1` (stereo not given), for which the cytotoxicity at 70.5 h was -6.24%.

Consider `Cc1ccc(CN2CCN(C(=O)c3ccccc3O)C(C)C2=O)cc1` (stereo not given), for which the cytotoxicity at 70.5 h is -18.7%.

Take `CCNC(=O)N1CCCC(C(=O)c2cccc(OC(C)C)c2)C1` (stereo not given): the cytotoxicity at 70.5 h was -6.88%.

In the case of `O=C1CCC2(CCNCC2)CN1Cc1nncn1CCc1ccccc1`, the cytotoxicity at 70.5 h is -8.25%.

With `Cc1cnc(C)c(N2CCN(CCCc3ccncc3)CC2)n1`, the cytotoxicity at 70.5 h worked out at 6.37%.

On to `Cc1cc(C[C@@H]2COC[C@@H]2NC(=O)CN2CCOC2=O)on1`, for which the cytotoxicity at 70.5 h was -7.96%.

As for `CCc1[nH]c2ccc(CNC(=O)Cc3c(C)nc(N)nc3C)cc2c1C`, the cytotoxicity at 70.5 h worked out at 1.33%.

For `CN1CCC(Cc2noc(-c3cn(Cc4ccc(F)cc4)nn3)n2)CC1`, the cytotoxicity at 70.5 h was -3.72%.

With `CCN1CC(C(=O)NCCn2cccc2)CCC1=O` (stereo not given), the cytotoxicity at 70.5 h was -7.13%.

Take `Cc1ccc(CCNC(=O)CC2COCCN2S(=O)(=O)N(C)C)s1` (stereo not given): the cytotoxicity at 70.5 h was -11%.

Regarding `COc1cc(CN2CCCC2)ccc1Oc1ccc2c(c1)CC(CN)O2` (stereo not given), the cytotoxicity at 70.5 h is 1.9%.

Regarding `Cc1cnn(CC(=O)N2CCC3(CCC(=O)N(CC(C)O)C3)CC2)c1` (stereo not given), the cytotoxicity at 70.5 h was -5.26%.

As to `O=C(CCc1nc(Cl)n[nH]1)N[C@H]1CC[C@H]1NC1Cc2ccccc2C1`, the cytotoxicity at 70.5 h is -9.72%.
